In patent US20080070860A1, “Adenosine Analogs Useful as Anti-Bacterial and Anti Protozoan Agents” (UTI LIMITED PARTNERSHIP, priority 2005, published 2008):

Biological target: T1, adenosine phosphorylase (Escherichia coli, UniProt P0ABP8)
T1 construct: assayed using the cell free lysate of E. coli as enzyme source; endogenous in cells; host or cells: Escherichia coli DH5alpha (cell-free lysate, 10,000 x g supernatant)
Test: Adenosine phosphorylase assay (cleavage of nucleoside analog to base, E. coli cell free lysate, HPLC)
Assay type: biochemical, Escherichia coli DH5alpha
Details: 100 μM nucleoside analog, 20 min, 50 mM phosphate pH 7.4
Experimental: Escherichia coli DH5alpha cells were used as the source of adenosine phosphorylase to test the compounds of the present invention. E. coli DH5 alpha cells were harvested in log phase and collected by centrifugation. Cells were lysed by sonication, centrifuged at 10,000×g for 30 min and the supernatant was recovered for assay or storage at −60° C.
Adenosine phosphorylase activity was assayed using the cell free lysate of E. coli as enzyme source for catalysis of the cleavage of nucleoside analogs to their corresponding base analogs in the presence of 50 mM phosphate at pH 7.4. Reaction products were subjected to separation by reverse phase high performance liquid chromatography (HPLC) equipped with continuous scanning diode array detector as described below. Substrates and products were identified by retention time and UV spectra of their peaks.
Samples for HPLC were prepared post reaction by deproteination with 10% v/v of 50% TCA. Following centrifugation at 10,000 g for 5 min the supernatant was recovered for neutralization. A minimal amount of bromophenol blue was added and the sample was titrated with alamine-freon. Following a further centrifugation at 10,000 g for 5 min, the neutralized sample may be stored at −60° C.
Nucleosides and bases in a 10 μl sample were separated on an HPLC equipped with a scanning UV detector from 220 to 320 nm at 5 nm intervals, utilizing a reverse phase Waters Symmetry C18, 4.6×150 mm, 5 um column in tandem with a Waters guard column.
Compounds were identified by retention time and UV spectra at peak height as collected during separation.
The relative rate of conversion of 100 μM nucleoside analog to the corresponding base in 20 min (measured as the % of analog converted) was determined for the following compounds: 5′-deoxyadenosine, 41%; 2-chloroadenosine, 31%; 2-chloro-5′-deoxyadenosine, 8%; 2-fluoro-5′-deoxyadenosine, >80%; 6-thiopurine-5′-deoxyriboside, 61%; 2-amino-5′-deoxyadenosine, 7%.

T1 sequence (P0ABP8 2-239): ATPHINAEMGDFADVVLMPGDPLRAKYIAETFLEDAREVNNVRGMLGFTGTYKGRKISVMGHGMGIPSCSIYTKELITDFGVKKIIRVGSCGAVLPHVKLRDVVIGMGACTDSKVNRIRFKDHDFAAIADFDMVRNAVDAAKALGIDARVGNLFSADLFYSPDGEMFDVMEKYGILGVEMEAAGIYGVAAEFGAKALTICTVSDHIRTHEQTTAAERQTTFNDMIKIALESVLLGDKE

| Structure (SMILES) | relative rate of conversion of nucleoside analog to the corresponding base (% of analog converted) |
| --- | --- |
| Nc1nc(Cl)nc2c1ncn2[C@@H]1O[C@H](CO)[C@@H](O)[C@H]1O [2-chloroadenosine, reference compound] | 31% |
| C[C@H]1O[C@@H](n2cnc3c(S)ncnc32)[C@H](O)[C@@H]1O [6-thiopurine-5′-deoxyriboside, 6-mercaptopurine-5′-deoxy-β-D-riboside] | 61% |
| C[C@H]1O[C@@H](n2cnc3c(N)ncnc32)[C@H](O)[C@@H]1O [5′-deoxyadenosine] | 41% |
| C[C@H]1O[C@@H](n2cnc3c(N)nc(Cl)nc32)[C@H](O)[C@@H]1O [2-chloro-5′-deoxyadenosine] | 8% |
| C[C@H]1O[C@@H](n2cnc3c(N)nc(N)nc32)[C@H](O)[C@@H]1O [2-amino-5′-deoxyadenosine] | 7% |
| C[C@H]1O[C@@H](n2cnc3c(N)nc(F)nc32)[C@H](O)[C@@H]1O [2-fluoro-5′-deoxyadenosine] | > 80% |

Test system: not given
Test: not given
Details: not given

| Structure (SMILES) | melting point |
| --- | --- |
| COC[C@H]1O[C@@H](n2cnc3c(N)nc(F)nc32)[C@H](O)[C@@H]1O | 231 to 233 °C |
| C[C@H]1O[C@@H](n2cnc3c(N)nc(N)nc32)[C@H](O)[C@@H]1O [2-amino-5′-deoxyadenosine] | 135 to 138 °C |
| C[C@H]1O[C@@H](n2cnc3c(N)nc(F)nc32)[C@H](O)[C@@H]1O [2-fluoro-5′-deoxyadenosine] | 244 to 245 °C |
| COC[C@H]1O[C@@H](n2cnc3c(N)nc(Cl)nc32)[C@H](O)[C@@H]1O | 92 to 94 °C |

Biological target: adenosine kinase (Homo sapiens, UniProt P55263)
Sequence (P55263 whole entry, species assumed): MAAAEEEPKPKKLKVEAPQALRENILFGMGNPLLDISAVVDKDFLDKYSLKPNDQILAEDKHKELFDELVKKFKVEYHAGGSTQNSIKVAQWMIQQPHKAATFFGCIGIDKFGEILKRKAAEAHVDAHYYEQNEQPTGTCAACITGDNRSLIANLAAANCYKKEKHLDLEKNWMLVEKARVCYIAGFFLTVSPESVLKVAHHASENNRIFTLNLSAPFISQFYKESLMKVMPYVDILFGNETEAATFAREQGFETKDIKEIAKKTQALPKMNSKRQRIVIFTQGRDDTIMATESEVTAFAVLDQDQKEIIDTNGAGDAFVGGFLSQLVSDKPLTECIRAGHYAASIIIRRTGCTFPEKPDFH
Test: not given
Details: Kowaluk et al. 1998; cited from earlier work

| Structure (SMILES) | inhibition of adenosine kinase |
| --- | --- |
| NC[C@H]1O[C@@H](n2cnc3c(N)ncnc32)[C@H](O)[C@@H]1O [5′-deoxy-5′-amino-adenosine] | potent inhibitor |

Biological target: T2, adenosine deaminase (Homo sapiens, UniProt P00813)
T2 sequence (P00813 1-363): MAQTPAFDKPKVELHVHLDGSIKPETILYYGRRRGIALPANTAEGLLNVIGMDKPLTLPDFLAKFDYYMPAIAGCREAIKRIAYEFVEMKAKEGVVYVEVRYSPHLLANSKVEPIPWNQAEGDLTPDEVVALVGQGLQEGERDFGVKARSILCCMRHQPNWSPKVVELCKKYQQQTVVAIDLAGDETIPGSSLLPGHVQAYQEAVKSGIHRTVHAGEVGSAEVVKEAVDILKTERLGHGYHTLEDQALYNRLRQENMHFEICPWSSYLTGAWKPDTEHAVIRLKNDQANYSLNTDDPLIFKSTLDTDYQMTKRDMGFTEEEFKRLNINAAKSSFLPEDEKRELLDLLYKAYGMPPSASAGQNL
Test: not given
Details: cited from earlier work

| Structure (SMILES) | susceptibility to adenosine deaminase |
| --- | --- |
| Cc1ncnc2nc[nH]c12 [6-methylpurine] | quite refractory |
